Source: US8680113B2, “BMI-1 protein expression modulators” (PTC Therapeutics, Inc., priority 2008, dated 2014)

Test system: Bmi-1
Assay: Sandwich ELISA Assay (Bmi-1 ELISA in HT-1080 cells)
Assay type: cell-based, human
Summary of the method: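 Lysate Bmi-1 was quantified against a recombinant GST-Bmi-1 standard (0-8000 pg/mL) by sandwich ELISA read at OD450 with OD570 reference. The ELISA used mouse monoclonal capture, rabbit anti-Bmi-1, HRP anti-rabbit IgG and TMB. Before lysis, HT-1080 cells seeded at 8000/well were exposed to compounds for 40-48 h at 37°C with 0.5% final DMSO.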

Brc1cccc(Nc2nccc(-c3cnc4ccccn34)n2)c1 [Cpd 256, N-(3-bromophenyl)-4-(imidazo[1,2-a]pyridin-3-yl)pyrimidin-2-amine]
IC50: < 500 nM

COc1cc(Br)c(Nc2nccc(-c3cnc4ncccn34)n2)c(Br)c1 [Cpd 257, N-(2,6-dibromo-4-methoxyphenyl)-4-(imidazo[1,2-a]pyrimidin-3-yl)pyrimidin-2-amine]
IC50: < 500 nM

c1cnc2ncc(-c3ccnc(Nc4ccc5c(c4)OCO5)n3)n2c1 [Cpd 259, N-(1,3-benzodioxol-5-yl)-4-(imidazo[1,2-a]pyrimidin-3-yl)pyrimidin-2-amine]
IC50: < 500 nM

COc1cccc(Nc2nccc(-c3cnc4ncccn34)n2)c1 [Cpd 260, 4-(imidazo[1,2-a]pyrimidin-3-yl)-N-(3-methoxyphenyl)pyrimidin-2-amine]
IC50: < 500 nM

COc1ccc(Nc2nccc(-c3cnc4ncccn34)n2)cc1 [Cpd 261, 4-(imidazo[1,2-a]pyrimidin-3-yl)-N-(4-methoxyphenyl)pyrimidin-2-amine]
IC50: < 500 nM

CCOc1ccc(Nc2nccc(-c3cnc4ncccn34)n2)cc1 [Cpd 262, N-(4-ethoxyphenyl)-4-(imidazo[1,2-a]pyrimidin-3-yl)pyrimidin-2-amine]
IC50: < 500 nM

CCN(CC)c1ccc(Nc2nccc(-c3cnc4ncccn34)n2)cc1 [Cpd 263, N,N-diethyl-N′-[4-(imidazo[1,2-a]pyrimidin-3-yl)pyrimidin-2-yl]benzene-1,4-diamine]
IC50: < 500 nM

CN(C)c1cccc(Nc2nccc(-c3cnc4ncccn34)n2)c1 [Cpd 264, N′-[4-(imidazo[1,2-a]pyrimidin-3-yl)pyrimidin-2-yl]-N,N-dimethylbenzene-1,3-diamine]
IC50: < 500 nM

CN(C)c1ccc(Nc2nccc(-c3cnc4ncccn34)n2)cc1 [Cpd 265, N′-[4-(imidazo[1,2-a]pyrimidin-3-yl)pyrimidin-2-yl]-N,N-dimethylbenzene-1,4-diamine]
IC50: 500 to 1000 nM

Fc1ccccc1Nc1nccc(-c2cnc3ncccn23)n1 [Cpd 266, N-(2-fluorophenyl)-4-(imidazo[1,2-a]pyrimidin-3-yl)pyrimidin-2-amine]
IC50: < 500 nM

Fc1cccc(Nc2nccc(-c3cnc4ncccn34)n2)c1 [Cpd 267, N-(3-fluorophenyl)-4-(imidazo[1,2-a]pyrimidin-3-yl)pyrimidin-2-amine]
IC50: < 500 nM

Fc1ccc(Nc2nccc(-c3cnc4ncccn34)n2)cc1 [Cpd 268, N-(4-fluorophenyl)-4-(imidazo[1,2-a]pyrimidin-3-yl)pyrimidin-2-amine]
IC50: < 500 nM

Clc1cccc(Nc2nccc(-c3cnc4ncccn34)n2)c1 [Cpd 269, N-(3-chlorophenyl)-4-(imidazo[1,2-a]pyrimidin-3-yl)pyrimidin-2-amine]
IC50: < 500 nM

Brc1ccc(Nc2nccc(-c3cnc4ncccn34)n2)cc1 [Cpd 270, N-(4-bromophenyl)-4-(imidazo[1,2-a]pyrimidin-3-yl)pyrimidin-2-amine]
IC50: < 500 nM

CCc1nc2ncccn2c1-c1ccnc(Nc2ccc(Br)cc2)n1 [Cpd 271, N-(4-bromophenyl)-4-(2-ethylimidazo[1,2-a]pyrimidin-3-yl)pyrimidin-2-amine]
IC50: < 500 nM

N-(4-ethoxyphenyl)-4-(2-methylimidazo[1,2-a]pyridin-3-yl)pyrimidin-2-amine [Cpd 128]
IC50: < 500 nM
